{
  "source": "patent US20040063659A1",
  "about": "“Novel 2'-halomethylidene,2'-ethenylidene and 2'-ethynyl cytidine, uridine and guanosine derivatives” (Merrell Pharmaceuticals Inc., priority 1988, published 2004)",
  "test_system": "HeLa cells",
  "assay": "Inhibitory effects of compounds on HeLa cell proliferation in vitro",
  "format": "cell-based",
  "conditions": "Homo sapiens; exponentially growing HeLa cells, incubated with test compound for 96 hours; concentration at 50% inhibition of cell growth",
  "protocol": "The inhibitory effect of various compounds of formula (1) on HeLa cell proliferation in vitro was determined according to the method described by Sunkara et al. [J. Natl Cancer Instit. 70, 505-509 (1983)]. Exponentially growing HeLa cells were incubated in the presence or absence of various concentrations of test compounds for 96 hours. IC50 values were calculated which represent the test compound concentration at 50% inhibition of cell growth.",
  "data": [
    {"smiles": "Nc1ccn([C@@H]2O[C@H](CO)[C@@H](O)/C2=C\\F)c(=O)n1", "note": "[Compound A, (E)-2′-deoxy-2′-fluoromethylidene cytidine]", "values": [
      {"measurement": "IC50", "value": "0.01 to 0.015", "unit": "µg/mL"}
    ]},
    {"smiles": "Nc1ccn([C@@H]2O[C@H](CO)[C@@H](O)/C2=C/F)c(=O)n1", "note": "[Compound B, (Z)-2′-deoxy-2′-fluoromethylidene cytidine]", "values": [
      {"measurement": "IC50", "value": "1 to 5", "unit": "µg/mL"}
    ]}
  ]
}
